What was measured:
[1] = test system: Y box protein (TSEP-1) RNA; assay: Northern analysis of Y box protein (TSEP-1) RNA levels in FRTL-5 cells; type: cell-based, rat; conditions: 40 hours
Excerpt: Whereas γ-IFN decreases Y box protein RNA levels in FRTL-5 cells, MMI can reverse this action (FIG. 16). […] The rat TSEP-1 probe was the clone 31 insert, residues 5 to 1395 of the rat TSEP-1 nucleotide sequence reported (Ohmori, M., et al., ibid (1996)); rat β-actin was kindly provided by Dr. B. Paterson (NCI, Bethesda, Md.). Radiolabeling of all probes, hybridization (0.5-1.0×10^6cpm/ml), and washing were as described (Isozaki, O., et al., ibid (1989); Saji, M., et al., ibid (1992); Ohmori, M., et al., ibid (1996)).
The ability of the compounds to reverse the γ-IFN-induced decrease in TSEP-1 RNA levels is once again 10>11>7 or 8>2>MMI>3. This mimics data in all other assays.

[2] = test system: MHC class II antigen expression; assay: Flow cytometry of IFN-increased class II antigen expression in FRTL-5 cells; type: cell-based, rat; conditions: 100 U/ml γ-interferon, 6H medium (TSH), 40 hours
Method: […] 13 and 14. Cells were stained with a fluorescein isothiocyanate conjugated class II-specific monoclonal antibody to RT1.B (clone OX-6, Sera Labs, UK) for 60 min at 4° C., washed twice with Dulbecco's phosphate buffered saline, and subjected to laser flow cytometry.
(§1) In this experiment 10^6 cells were incubated with MHC class II or MHC class I-specific antibodies as described (Montani, V., et al., ibid (1998b); Saji, M., et al., ibid (1992a); Balducci-Silano, P. L., et al., Endocrinology 139:2309-2313 (1998)). After 30 min on ice, cells were washed with phosphate buffered saline at pH 7.4 and incubated for 30 min with fluorescein-isothiocyanate (FITC)-conjugated antibodies then analyzed by flow cytometry on a FACScan Cytometer using CellQuest software (Becton Dickinson).
(§2) The concentration needed to achieve suppression of the interferon induced class I or class II surface expression was determined by testing different concentrations of the compounds (Table 18). Like all other assays, the order of effectiveness was compound 10>11>7 or 8>2>MMI>3.

[3] = test system: HLA-DRα class II promoter; assay: Transient transfection CAT assay, HLA-DRα class II promoter chimeras in FRTL-5 cells; type: cell-based; conditions: FRTL-5, 100 U/ml γ-interferon, 6H medium, read-out: % inhibition of IFN-increased p(−137)CAT class II promoter activity
Excerpt: Construction of the HLA-DR promoter constructs has also been described as have been their characteristics (Reimold A M, et al., ibid (1993)). Additional CAT constructs were constructed by PCR, using the HLA-DRα-CAT chimera containing −176 to +45 of 5′-flanking region as template and various primers (Montani V. et al., ibid (1998a,b)). For example, a plasmid containing −38 to +45 bp of the 5′-flanking region of HLA-DRα was constructed with the following primers: a 5′ primer with a 5′ Sph I restriction site, 5′-[…]-3′ and a 3′ primer, 5′-[…]-3′, with an Xba I restriction site (Montani V., et al., ibid (1998a,b)). The PCR products were purified by phenol-chloroform extraction, digested with Xba I and Sph I, purified from a 2% agarose gel with Jet Sorb (Genomed, Frederick, Md.), dephosphorylated with calf intestinal alkaline phosphatase (New England Biolabs, Beverly, Mass.), and religated (DNA ligation kit, Takara Biochemical, Inc., Berkeley, Calif.) into the pCAT-Basic Vector (Promega, Madison, Wis.) at the Sph I and Xba I sites as described (Reimold AM, et al., ibid (1993); Montani V., et al., ibid (1998a,b)).
To measure the promoter activity of MHC class II promoter constructs, transient transfections in FRTL-5 cells were performed, using one of the following procedures (Montani V., et al., ibid (1998a, b)). In one, FRTL-5 cells were cultivated in 6H medium to approximately 80% confluency, harvested, washed, and resuspended (1.5×10^7 cells/ml) in 0.85 ml electroporation buffer (272 mM sucrose, 7 mM sodium phosphate buffer pH 7.4, and 1 mM MgCl2). Plasmid DNA was added, 20 μg of the CAT chimera together with 2 μg pRSV-luciferase which is used to measure the efficiency of transfection. Cells were pulsed (330 V; capacitance 25 μfarad), plated (6×10^6 cells/10 cm dish), and cultured in 6H medium plus 5% calf serum supplemented or not with γ-IFN. At the times noted, cells were harvested for CAT and luciferase assays. The second procedure differed as follows. FRTL-5 cells were grown to 80% confluency in 6H medium, then maintained 6 days in 5H medium plus 5% calf serum. Cells were returned to 6H medium for 12 hours, transfected as described above, and maintained in 6H medium plus 5% calf serum for twelve hours. The medium was then changed to fresh 5H medium with 5% calf serum supplemented or not with γ-IFN. […] CAT activity was measured as described above and values were normalized to luciferase activity measured using the Promega (Madison, Wis.) assay system.
To test the effect of MMI, MMI derivatives or tautomeric cyclic thiones on γ-IFN-increased class II expression in FRTL-5 thyroid cells, the following procedure was used. Transient transfections with the −137 bp or −176 bp DRα-CAT chimeras were performed as described and treated with 100 U/ml γ-IFN for the noted times starting 12 hours after transfection. […]
In this experiment, like previous experiments, transient transfections were performed in FRTL-5 cells grown to 80% confluency in 6H medium, maintained 6 days in SH medium, and returned to 6H medium for 12 h before transfection as described. Twelve hours later, the medium was changed to fresh 5H medium, supplemented or not with 100 U/ml γ-IFN and/or 5 mM MMI. CAT activity was measured 48 h thereafter. […] Results are the mean ±SD of 3 separate experiments.

[4] = test system: MHC class I antigen expression; assay: Flow cytometry of IFN-increased class I antigen expression in FRTL-5 cells; type: cell-based, rat; conditions: 100 U/ml γ-interferon, 6H medium (TSH), 40 hours
Method: as §1, §2

SMILES: Cn1c(-c2ccccc2)cnc1S [Compound 10, 5-Phenylmethimazole]
- Y box protein (TSEP-1) RNA level, compound +γIFN ([1]; 100 μM compound + γIFN): 183 ± 12%
- Y box protein (TSEP-1) RNA level, compound ALONE ([1]; 100 μM compound alone): 124 ± 4%
- Y box protein (TSEP-1) RNA level, compound +γIFN ([1]; 1 mM compound + γIFN): 178 ± 10%
- Y box protein (TSEP-1) RNA level, compound ALONE ([1]; 1 mM compound alone): 122 ± 8%
- Concentration to inhibit IFN-increased antigen expression, Class II [2]: 54 ± 11 µM
- inhibition at 10 µM ([3]; 10 μM): 45 ± 17%
- inhibition at 100 µM ([3]; 100 μM): 88 ± 15%
- inhibition at 500 µM ([3]; 0.5 mM): 95 ± 5%
- Concentration to inhibit IFN-increased antigen expression, Class I [4]: 40 ± 10 µM
